US20240053368A1, “METHOD FOR EVALUATING BLOOD PARAMETERS” (SEDICIDODICI S.R.L., priority 2020, published 2024)

Assays:
[1] = system: platelets (platelet aggregate formation); test: ex-vivo dynamic evaluation of the coagulation process in a whole-blood sample under flow: platelet aggregate formation; parameters: species or system human; conditions: mean value, blood of subjects under the therapy, 8-bit acquisition system
Source text: According to some embodiments, the method of the invention comprises the following steps: • a) providing a whole-blood sample taken from a subject and added with an anti-coagulant substance; • b) treating the blood sample of step a) with a solution consisting of fluorescent probes for marking platelets and fibrin capable of binding more or less specifically to platelets and fibrin and emitting fluorescent light on two different emission frequencies and of a recalcification solution of the blood sample. […]
(§1) From a study carried out on healthy subjects not subjected to anticoagulant or antiplatelet therapy (controls), mean values of the parameters calculated as described above were obtained. […]

[2] = system: fibrin (fibrin formation); test: ex-vivo dynamic evaluation of the coagulation process in a whole-blood sample under flow: fibrin formation; parameters: species or system human; conditions: mean value
Source text: According to some embodiments, the method of the invention comprises the following steps: • a) providing a whole-blood sample taken from a subject and added with an anti-coagulant substance; • b) treating the blood sample of step a) with a solution consisting of fluorescent probes for marking platelets and fibrin capable of binding more or less specifically to platelets and fibrin and emitting fluorescent light on two different emission frequencies and of a recalcification solution of the blood sample. The two aforesaid solutions can also be combined in a single solution or single reagent; • c) introducing said recalcified blood sample into an analytical device having at least one perfusion chamber, in which at least one wall consists of a transparent material comprising a cytoadhesive substance, the blood sample being made to flow into the perfusion chamber in known and measurable flow conditions; • d) during the blood flow in the perfusion chamber, alternately acquiring at least two series of fluorescence images, so that at least one series of fluorescence images is acquired at an emission wavelength characteristic of the fluorescent probe for platelets and at least one other series of fluorescence images is acquired at another emission wavelength characteristic of the fluorescent probe for fibrin; • e) binarizing the pixels of the acquired images for the platelets and for the fibrin, so as to generate a first curve of area covered by illuminated pixels vs. time (t) for the formation of a platelet aggregate and a second curve of area covered by illuminated pixels vs. time for the fibrin formation; • f) generating a first curve of average fluorescence intensity vs. time for the formation of the platelet aggregate and a second curve of average fluorescence intensity vs. time for the fibrin formation; • the method further comprising at least one of the following steps: • g) generating a first integrated density curve defined as the product of area and fluorescence intensity vs. time for the formation of the platelet aggregate and a second integrated density curve defined as the product of area and fluorescence intensity vs. time for the fibrin formation; • h) generating a curve of particle number vs. time, in which the number of particles is given by the number of platelet aggregates consisting of more than 2 illuminated pixels; • i) generating a curve of particle size vs. time, in which the particle size is given by the average size of the platelet aggregates consisting of more than 2 illuminated pixels; • j) generating values of maximum slope, defined as the relative maximum points of the first derivative function calculated for the curves of the parameter obtained in one or more of steps e), f), g), h) and i); • k) generating values of maximum acceleration, defined as the relative maximum points of the second derivative function calculated for the curves of the parameter obtained in one or more of steps e), f), g), h) and i); • l) generating values of F/P ratio, defined as the ratio of the AUCs of fibrin to the AUCs of the platelets of the parameter obtained in one or more of steps e), f) and g); • the method further comprising the steps of: • m) generating a lag time value representing the fibrin formation time defined as the time corresponding to the first occurrence of five consecutive images in which the value of the measured area related to fibrin is >1% of the maximum peak value of the curve; • n) generating the AUC (Area Under the Curve) values given by the area under the curve of the parameter obtained in one or more of steps e), f), g), h) and i).
as §1

## CC(=O)Oc1ccccc1C(=O)O [ASA, acetylsalicylic acid]
[1]; area under the curve of the area curve
  Platelets AUC Area: 3.4 ×10^7
[1]; area under the curve of the fluorescence intensity curve
  Platelets AUC MGV: 2.0 ×10^4
[1]; area under the curve of the integrated density curve
  Platelets AUC ID: 3.0 ×10^9
[2]; AUC Area ratio of fibrin to platelets, subjects under the therapy
  F/P Area: 1.0
[2]; AUC ID ratio of fibrin to platelets, subjects under the therapy
  F/P ID: 2.2
[2]; AUC MGV ratio of fibrin to platelets, subjects under the therapy
  F/P MGV: 1.2
[2]; blood of subjects under the therapy, area under the curve of the area curve, 8-bit acquisition system
  Fibrin AUC Area: 3.0 ×10^7
[2]; blood of subjects under the therapy, area under the curve of the fluorescence intensity curve, 8-bit acquisition system
  Fibrin AUC MGV: 2.0 ×10^4
[2]; blood of subjects under the therapy, area under the curve of the integrated density curve, 8-bit acquisition system
  Fibrin AUC ID: 4.3 ×10^9
